{
  "source": "patent US20090247570A1",
  "about": "“PHARMACEUTICALS” (Pfizer Inc, priority 2006, published 2009)",
  "key": {"[1]": {"test_system": "HIV-1 (CXCR4 using viral population)", "experiment": "Clinical trial: HIV-1 viral load after 24 weeks in treatment experienced patients infected with a CXCR4 using viral population", "type": "in vivo", "details": "for Mean VL reduction: after 24 weeks, change from baseline; for Treatment difference in VL reduction: 97.5% confidence interval printed in next row", "source_text": "(§1) (b) were infected with a non R5 tropic (CXCR4 using viral population) as determined by Monogram Bioscience Phenosense™ assay (WO 02/-99383; U.S. Pat. No. 5,837,464), or were of indeterminate tropism phenotype;\n(c) had been on a stable antiviral regimen for at least 4 weeks prior to randomisation:\n(e) (i) had at least three months previous antiretroviral experience with at least one agent from three of the four antiretroviral drug classes: NTRIs, NNRTIs, protease inhibitors and fusion inhibitors (i.e. were triple class experienced); or\n(ii) had documented resistance to members of two of the four antiretroviral drug classes (i.e. were dual class resistant).\n(§2) The eligible patients were randomised into three groups based on the drug regimens they received.\n(§3) Group 3: optimised background therapy (as above) plus placebo.\nThese patients were distributed evenly among the 3 patient groups.\n(§4) The mean of these measurements was taken to be the baseline measurement for each patient.\n(§5) After 24 weeks of treatment, the endpoints (as discussed below) were measured.\n(a) For each patient, the change from baseline in HIV-1 viral load (on a log[base10]scale) was measured.\n(b) The percentage of patients with fewer than (i) 400 and (ii) 50 HIV-1 RNA copies\\mL."}, "CD4 cell count": {"test_system": "CD4 cell count", "experiment": "Clinical trial: change from baseline in CD4 cell count (FACS) after 24 weeks", "type": "in vivo, human", "details": "for Mean change in CD4 count: from baseline", "source_text": "as §1, §2, §3, §4, §5\n(§6) (d) For each patient, the change from baseline in CD4 and CD8 cell count was measured.\n(§7) Cell count was measured by fluorescence activated cell sorting (FACS), which is a standard technique."}, "CD8 cell count": {"test_system": "CD8 cell count", "experiment": "Clinical trial: change from baseline in CD8 cell count (FACS) after 24 weeks", "type": "in vivo, human", "details": "for Mean change in CD8 count: from baseline", "protocol": "as §1, §2, §3, §5, §6, §7"}, "[2]": {"details": "once daily maraviroc + optimised regimen, 24 weeks"}, "[3]": {"details": "twice daily maraviroc + optimised regimen, 24 weeks"}, "[4]": {"details": "maraviroc both once and twice daily"}, "[5]": {"details": "once daily maraviroc + optimised regimen"}, "[6]": {"details": "twice daily maraviroc + optimised regimen"}},
  "data": [
    {"substance": "(N-{(1S)-3-[3-isopropyl-5-methyl-4H-1,2,4-triazole-4-yl]-exo-8-azabicyclo[3.2.1]oct-8-yl}-1-phenylpropyl)-4,4-difluorocyclohexanecarboxamide [maraviroc]", "values": [
      {"measurement": "viral load change from baseline", "setting": "[1]; maraviroc once daily and twice daily groups, 24 weeks", "result": "−1.2", "unit": "log10"},
      {"measurement": "Mean VL reduction", "setting": "[1]; once daily maraviroc 150 mg po (300 mg if OBT without PI or delavirdine) + optimised regimen", "result": "−0.91", "unit": "log10 copies/mL"},
      {"measurement": "Treatment difference in VL reduction", "setting": "[1]; once daily maraviroc + optimised regimen vs placebo + optimised regimen, 24 weeks", "result": "+0.06 log10 copies/mL"},
      {"measurement": ">0.5 log10 VL reduction (percentage of patients)", "setting": "[1]; [2]", "result": 42.1, "unit": "%"},
      {"measurement": ">1 log10 VL reduction (percentage of patients)", "setting": "[1]; [2]", "result": 31.6, "unit": "%"},
      {"measurement": "VL < 50 counts\\mL (percentage of patients)", "setting": "[1]; [2]", "result": 21.0, "unit": "%^"},
      {"measurement": "VL < 400 counts/mL (percentage of patients)", "setting": "[1]; [2]", "result": 24.6, "unit": "%"},
      {"measurement": "Mean VL reduction", "setting": "[1]; twice daily maraviroc 150 mg po (300 mg if OBT without PI or delavirdine) + optimised regimen", "result": "−1.20", "unit": "log10 copies/mL"},
      {"measurement": "Treatment difference in VL reduction", "setting": "[1]; twice daily maraviroc + optimised regimen vs placebo + optimised regimen, 24 weeks", "result": "−0.23", "unit": "log10 copies/mL"},
      {"measurement": ">0.5 log10 VL reduction (percentage of patients)", "setting": "[1]; [3]", "result": 48.1, "unit": "%"},
      {"measurement": ">1 log10 VL reduction (percentage of patients)", "setting": "[1]; [3]", "result": 44.2, "unit": "%"},
      {"measurement": "VL < 50 counts\\mL (percentage of patients)", "setting": "[1]; [3]", "result": 26.9, "unit": "%"},
      {"measurement": "VL < 400 counts/mL (percentage of patients)", "setting": "[1]; [3]", "result": 30.8, "unit": "%"},
      {"measurement": "increase in CD4 cell count as compared to the placebo", "setting": "CD4 cell count; [4]", "result": "clinically meaningful (and statistically significant) increase"},
      {"measurement": "mean CD4 change", "setting": "CD4 cell count; maraviroc once daily + OBT", "result": "+59.6 cells/μL"},
      {"measurement": "mean CD4 change", "setting": "CD4 cell count; maraviroc twice daily + OBT", "result": "+62.2 cells/μL"},
      {"measurement": "Mean change in CD4 count", "setting": "CD4 cell count; [5]", "result": "+59.6"},
      {"measurement": "Mean change in CD4 count", "setting": "CD4 cell count; [6]", "result": "+62.4"},
      {"measurement": "increase in CD8 cell count as compared to the placebo", "setting": "CD8 cell count; [4]", "result": "clinically meaningful (and statistically significant) increase"},
      {"measurement": "Mean CD8 cell change", "setting": "CD8 cell count; maraviroc once daily + OBT", "result": "+384.5 cells/μL"},
      {"measurement": "Mean CD8 cell change", "setting": "CD8 cell count; maraviroc twice daily + OBT", "result": "+338.8 cells/μL"},
      {"measurement": "Mean change in CD8 count", "setting": "CD8 cell count; [5]", "result": "+384.5"},
      {"measurement": "Mean change in CD8 count", "setting": "CD8 cell count; [6]", "result": "+338.8"}
    ]}
  ]
}
